In one series the target is T1, human eIF4E (Homo sapiens, UniProt P06730).
T1 construct: made in house
The series is described as follows: biochemical assay of peptide binding to human eIF4E (displacement of biotin labeled 4G2 peptide). How it is done:
A biochemical assay was run to test peptide binding to human eIF4E.
Human eIF4E (aa 28-217, SEQ ID NO: 87) with a C-terminal His tag (HH-eIF4E, SEQ ID NO: 88) was expressed in E. coli in inclusion bodies. The protein was solubilized with 8 M urea and purified under denaturing conditions using nickel-charged HisTrap HP columns (GE Healthcare). The protein was refolded by diluting to approximately 0.25 mg/mL with 6 M urea, 20 mM Hepes pH 7.0, 500 mM NaCl, 1 mM DTT, 1 mM EDTA, and 0.5 M arginine.HCl, and then dialyzing overnight into the same buffer without the urea. The protein was further dialyzed into 20 mM Hepes pH 6.5, 50 mM NaCl, 1 mM EDTA, and 1 mM DTT, filtered, and then concentrated using Hitrap SP sepharose FF columns (GE Healthcare). The protein was dialyzed into 20 mM Hepes pH 7.0, 500 mM NaCl, 5 mM DTT, and 10% glycerol and stored at −80° C. until use.
Test peptides (1.6 mM stock in DMSO) were diluted 3 fold in series in DMSO and solutions were diluted 4 fold in Assay Buffer (50 mM NaPi, pH 6.5, 50 mM KCl, 1 mM DTT, 0.004% NP40 and 0.5 mg/ml gammaglobulin). Six microliters per well of diluted peptide solutions and 12 microliters per well of 187.5 nM HH-eIF4E in Assay Buffer were added to 384-well polypropylene microplates (Matrix, Thermal Scientific). Twelve microliters per well of 187.5 nM biotin labeled 4G2 peptide (Ac-[…]Aha-Bio)-NH2 (SEQ ID NO: 91) 1:2 TFA) in Assay Buffer was added. The samples were incubated at room temperature for 20 minutes.
Six microliters per well of 4.8 nM Eu-streptavidin (Columbia Biosciences) and 48 nM Allophycocyanin-anti His antibody (Columbia Biosciences) in Assay Buffer (without DTT) were then added and the samples were incubated at room temperature for 30 min. Assay signals were monitored by reading emission fluorescence at 665 nm on an Envision Reader (PerkinElmer Life and Analytical Sciences). IC50 values were calculated using Condoseo software (Genedata AG, Basel, Switzerland).

A short description of another series: stability in rat plasma. In kind it is in vitro ADME. Particulars: Hannover Wistar, pH 7.4, Conc. 10 uM, 37° C. The procedure: (§1) The following study was conducted to assess the stability of the compound of Examples 2-4 (SEQ ID NOS: 9, 10 and 11) in Hannover Wistar rat and human plasma after 4 and 24 hours. Approximately, 2.0 mg of the compound of Examples 2-4 (SEQ ID NOS 9, 10 and 11) was weighed out and placed in a 4 mL amber vial. To this was added 1.0 mL DMSO. The vial was carefully vortexed to produce a solution of approximately 600 μM.
(§2) Hannover Wistar rat plasma and human plasma (anti-coagulant sodium EDTA) were pre-warmed to 37° C. for 30 minutes in a water bath. The pH of both plasmas was adjusted to pH7.4. 1.5 mL microcentrifuge vials were used.
(§3) The stock solution of the compound of Examples 2-4 was diluted into rat or human plasma to a final concentration of 10 μM. The two vials were gently vortexed ensuring proper mixing.
(§4) Six new vials were labeled as follows: rat T0, rat T4, rat T24, human T0, human T4, human T24. To each of these vials, 50 μL of treated plasma was added. The T4 and T24 vials were capped and placed in a 37° C. incubator for 4 and 24 hours, respectively.
(§5) To each of the two T0 vials, 50 μL of Sorensen buffer and 200 μL 1.0% acetic acid in acetonitrile were added. The T0 vials were then capped, vortexed and centrifuged at 10000×g for 10 minutes. Upon completion of centrifugation, 100 μL of the supernatant of each vial was added to a separate well in a 96-well injection block. 200 µL of 0.1% acetic acid in Milli-Q® water (Millipore) was then added to each well.
(§6) The above procedure as written with respect to the T0 vials was repeated for the two T4 vials at the 4 hour time point and the T24 vials at the 24 hour time point. With each time point a fresh T0 sample was prepared, as described above, to ensure there was no sample degradation.
(§7) All samples were analyzed by LC/MS/MS. The resulting chromatographs were processed to obtain peaks areas for each sample. The percent of compound remaining at each time point as compared with the amount present in the comparison T0 sample was calculated.

Series [1] is described as follows: stability in human plasma. In kind it is in vitro ADME. Conditions: pH 7.4, Conc. 10 uM, 37° C. How it is done:
as §1, §2, §3, §4, §5, §6, §7

Series [2] concerns downstream target gene expression. The series is described as follows: downstream target gene expression and apoptosis (FIG. 2). The format is cell-based.
Setting [3] is: Binding affinities expressed as IC50, HH-eIF4E, biotin labeled 4G2 peptide.
Setting [4] is: IC50 (μM), Table 2a, cell penetrating peptides with the Y----LL-F and YWLLALFVY motifs.
Where [5] appears, read: IC50 (μM), Table 2, cell-penetrating peptides with the Y----LL-F motif.

One may read the IC50 as the concentration that gives 50% inhibition.

T1 sequence (P06730 with tags, fused parts or gaps): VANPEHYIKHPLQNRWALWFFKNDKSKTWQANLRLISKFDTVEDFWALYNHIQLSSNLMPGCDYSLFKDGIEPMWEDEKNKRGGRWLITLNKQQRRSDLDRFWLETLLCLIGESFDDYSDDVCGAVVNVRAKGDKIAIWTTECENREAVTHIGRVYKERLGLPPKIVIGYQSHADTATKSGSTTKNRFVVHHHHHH

On to “Ac-MAKLKYWLLALFVYMWTDLLLFKKRPKP-NH2 [SEQ ID NO: 9]”, for which the half-maximal inhibitory concentration (IC50) at human eIF4E (setting [3]) was found to be 4.4 µM. Besides, in “stability in rat plasma”, the share remaining at 4 h, 10 µM stood at 91.7% and the share remaining at 24 h, 10 µM came to 18.2%. Besides, in series [1], the share remaining at 4 h, 10 µM came out at 94.9% and the share remaining at 24 h, 10 µM is 76.2%. Also, in series [2], the apoptosis entry is on record as “induce apoptosis” and the “downstream target gene expression” value is “inhibit downstream target gene expression”.
At human eIF4E (setting [3]), “Ac-MANLAYWLLALFVYMWTDLRLFKKRPKP-NH2 [SEQ ID NO: 10]” gave an IC50 of 6.61 µM. Moreover, on human eIF4E (setting [4]), the half-inhibitory concentration (IC50) was determined as 1.7 µM. For the same substance, in the series “stability in rat plasma”, the share remaining at 4 h, 10 µM came out at 102% and the share remaining at 24 h, 10 µM came to 23.7%. Further, in series [1], the fraction remaining at 4 h, 10 µM came to 99.1% and the fraction remaining at 24 h, 10 µM came to 45.2%. In series [2], the apoptosis result was “induce apoptosis” and the “downstream target gene expression” value is listed as “inhibit downstream target gene expression”.
On to “Ac-MVKYKIASLLLFLFVAMWSDVALAKKRPKP-NH2 [SEQ ID NO: 17]”, for which the IC50 on human eIF4E (setting [5]) was 12.5 µM.
On human eIF4E (setting [5]), “Ac-MVKYKIASLLLFLFVAMWSDVKLKKKRPKP-NH2 [SEQ ID NO: 18]” came in with an IC50 of 6.71 µM.
Same read-out and setting: with “Ac-MVKYKIGSLLLFLFVAMWSDVGLCKKRPKP-NH2 [SEQ ID NO: 12]” the figure was 4.13 µM; with “Ac-MYKSKILLWFLVLFVAMWSDVALAKKRPKP-NH2 [SEQ ID NO: 19]”, 7.21 µM.
Same read-out and setting: with “Ac-MYKSKILLWFLVLFVAMWSDVGLCKKRPKP-NH2 [SEQ ID NO: 14]” the figure was 3.62 µM.
With “Ac-NLAYWLLALFVYMWTDLRLFKKRPKP-NH2 [SEQ ID NO: 35]”, the half-maximal inhibitory concentration (IC50) at human eIF4E (setting [4]) worked out at 5.04 µM.
Substance “Ac-WLLALFVYMWTDLRLFKKRPKP-NH2 [SEQ ID NO: 50]” returned a half-maximal inhibitory concentration (IC50) on human eIF4E (IC50 (μM), Table 3, cell-penetrating peptides without the Y----LL-F motif) of 2.36 µM.
Turning to “Ac-YWLLALFVYMWTDLRLFKKRPKP-NH2 [SEQ ID NO: 37]”, on human eIF4E (setting [4]), the IC50 turned out to be 2.9 µM.
